As usually defined, the IC50 is the concentration that inhibits the measured activity by half.

This is an account of results in article PMC11106072, “CDK9 inhibition as an effective therapy for small cell lung cancer” (Cell Death & Disease, 2024).

This experiment has as its target T1, CDK9 (Homo sapiens, UniProt P50750).
T1 construct: with CyclinT1
Briefly: IMAP fluorescence polarisation kinase assay with CDK9/CyclinT1 (TAMRA-Rbtide, […] ATP); radiometric selectivity panel of […] CDK/cyclin pairs. The format is biochemical.

T1 sequence (P50750 whole entry): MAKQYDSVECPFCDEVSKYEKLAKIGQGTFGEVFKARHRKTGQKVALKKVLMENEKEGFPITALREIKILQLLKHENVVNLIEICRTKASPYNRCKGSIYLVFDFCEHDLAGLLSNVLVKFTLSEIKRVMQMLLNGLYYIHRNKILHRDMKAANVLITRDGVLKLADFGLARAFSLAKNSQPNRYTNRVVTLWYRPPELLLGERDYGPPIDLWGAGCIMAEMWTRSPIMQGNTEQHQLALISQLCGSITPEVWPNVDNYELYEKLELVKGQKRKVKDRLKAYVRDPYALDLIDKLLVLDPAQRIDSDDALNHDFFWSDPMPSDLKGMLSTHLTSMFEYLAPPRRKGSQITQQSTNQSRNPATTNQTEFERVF
T1 sequence (O60563 whole entry partner): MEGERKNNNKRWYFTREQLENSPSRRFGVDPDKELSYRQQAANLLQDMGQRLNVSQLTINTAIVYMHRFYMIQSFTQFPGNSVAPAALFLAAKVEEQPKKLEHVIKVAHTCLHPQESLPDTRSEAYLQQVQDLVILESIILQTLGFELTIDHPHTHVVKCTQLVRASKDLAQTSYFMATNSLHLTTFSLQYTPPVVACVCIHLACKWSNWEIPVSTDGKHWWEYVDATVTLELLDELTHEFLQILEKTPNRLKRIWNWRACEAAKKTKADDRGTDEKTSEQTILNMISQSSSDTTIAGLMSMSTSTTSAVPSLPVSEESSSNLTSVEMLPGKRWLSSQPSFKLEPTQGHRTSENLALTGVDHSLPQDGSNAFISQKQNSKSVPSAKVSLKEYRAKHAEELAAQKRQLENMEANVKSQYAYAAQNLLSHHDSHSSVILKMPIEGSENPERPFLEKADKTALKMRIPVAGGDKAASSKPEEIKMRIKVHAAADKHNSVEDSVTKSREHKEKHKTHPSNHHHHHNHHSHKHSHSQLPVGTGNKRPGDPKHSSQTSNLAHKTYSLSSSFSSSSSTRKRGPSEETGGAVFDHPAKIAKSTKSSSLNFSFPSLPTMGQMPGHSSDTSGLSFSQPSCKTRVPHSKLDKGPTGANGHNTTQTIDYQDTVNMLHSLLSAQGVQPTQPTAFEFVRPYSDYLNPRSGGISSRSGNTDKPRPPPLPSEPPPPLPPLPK

`COc1ccccc1-c1ncnc(Nc2cccc(Cn3cnc4ccccc43)c2)n1` [VC-1, VCC972839:01] came in with an IC50 of 7 nM.
